Reference: patent US20090318469A1, “Use of Flibanserin for the Treatment of Sexual Disorders in Females” (Boehringer Ingelheim International GmbH, priority 2006, published 2009)

Legend:
5-HT1A receptor = target: T1, 5-HT1A receptor (Homo sapiens, UniProt P08908); conditions: background statement, qualitative; cited from earlier work
T1 sequence (P08908 1-422): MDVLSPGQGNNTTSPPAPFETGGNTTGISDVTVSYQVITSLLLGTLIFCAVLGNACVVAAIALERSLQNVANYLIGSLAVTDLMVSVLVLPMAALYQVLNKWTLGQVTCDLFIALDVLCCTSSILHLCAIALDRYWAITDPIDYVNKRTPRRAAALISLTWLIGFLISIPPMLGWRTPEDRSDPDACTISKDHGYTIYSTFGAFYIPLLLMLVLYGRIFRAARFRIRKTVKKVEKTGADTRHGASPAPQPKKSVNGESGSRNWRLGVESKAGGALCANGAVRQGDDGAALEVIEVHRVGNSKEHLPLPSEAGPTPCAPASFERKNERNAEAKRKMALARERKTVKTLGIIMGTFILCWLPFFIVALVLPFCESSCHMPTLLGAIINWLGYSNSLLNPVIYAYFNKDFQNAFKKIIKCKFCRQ

5-HT2-receptor = conditions: background statement, qualitative; cited from earlier work
[1] = tested on: Sexual Disorders and/or Dysfunctions; test: studies of female patients suffering from Sexual Disorders; assay type: in vivo; conditions: free base or acceptable derivative, qualitative

O=c1[nH]c2ccccc2n1CCN1CCN(c2cccc(C(F)(F)F)c2)CC1 [Flibanserin, 1-[2-(4-(3-trifluoromethyl-phenyl)piperazin-1-yl)ethyl]-2,3-dihydro-1H-benzimidazol-2-one]
affinity for the 5-HT1A receptor (5-HT1A receptor): shows affinity
affinity for the 5-HT2-receptor (5-HT2-receptor): shows affinity
effect on Sexual Disorders and/or Dysfunctions [1]: positive effect
